# Test results reported in US4563463A, “2-Oxo-1,3-oxazolo[4,5-h] quinolines useful as anti-allergy agents” (priority 1984, dated 1986).
# Where two headings read alike, the source gives them in different places.
# Key:
# [1] = test system: passively sensitized Rat Mast Cells; test: Rat Mast Cell (RMC) test: inhibition of histamine release from passively sensitized Rat Mast Cells; type: cell-based; details: for IC50: Mast cell, histamine release, passively sensitized rat mast cells, read-out: I50 value in the RMC test; for RMC % inh.: at 50 μm (number in parentheses)
# Description: In addition, the compounds of this invention have potent activity as inhibitors of histamine release from passively sensitized Rat Mast Cells according to the porcedure described by E. Kusner, et al., Journal of Pharmacology and Experimental Therapeutics, 184, 41 (1973).
# [2] = test system: Rat Passive Cutaneous Anaphylaxis; test: Rat Passive Cutaneous Anaphylaxis (PCA) Screen: inhibition of wheal formation; type: in vivo; details: for ED50: Rattus norvegicus; for inhibition of wheal formation in the PCA test: 10 mg/kg, intraperitoneal
# Description: The compounds of this invention have potent activity in inhibiting the formation of a wheel when screened according to the Rat Passive Cutaneous Anaphylaxis (PCA) Screen as described by I. Mota, Life Sciences, 7, 465 (1963) and Z. Ovary, et al. Proceedings of Society of Experimental Biology and Medicine, 81, 584 (1952).
# [3] = PO, 25 mg/kg (number in parentheses)
# [4] = PO, 125 mg/kg (number in parentheses)
compound,measurement,setting,value
"COC(=O)c1nc2cc(Cl)c3cccnc3c2o1 [Example 1C, 2-Carbomethoxy-5-chloro-1,3-oxazolo-[4,5-h]quinoline]",IC50,[1],300 nM
same,ED50,"[2]; ip, intraperitoneal route, read-out: E50 value in PCA test",0.5 mg/kg
same,ED50,"[2]; oral route, read-out: E50 value in PCA test",1 mg/kg
"CCOC(=O)c1nc2cc(Cl)c3cccnc3c2o1 [Example 4, 2-carboethoxy-5-chloro-1,3-oxazolo-[4,5-h]quinoline]",IC50,[1],100 nM
same,inhibition of wheal formation in the PCA test,[2],59%
"O=C([O-])c1nc2cc(Cl)c3cccnc3c2o1.[Na+] [Example 14, 5-chloro-1,3-oxazolo-[4,5-h]quinoline-2-carboxylate, sodium salt]",IC50,[1],100 nM
same,inhibition of wheal formation in the PCA test,[2],51%
"O=c1[nH]c2ccc3cccnc3c2o1 [Example 18, 2-Oxo-3H-oxazolo[4,5-h]quinoline]",RMC % inh.,[1],< 30%
same,ED50,"[2]; IP, Table I, read-out: PCA ED50 IP",10 mg/kg
same,ED50,"[2]; PO, Table I, read-out: PCA ED50 PO",4 mg/kg
O=c1[nH]c2cc(Cl)c3cccnc3c2o1 [Example 19],PCA % inh. PO,[2]; [3],0%
"CC(=O)n1c(=O)oc2c3ncccc3ccc21 [Example 20, 3-Acetyl-2-oxo-3H-oxazolo[4,5-h]quinoline]",RMC % inh.,[1],18%
same,PCA % inh. PO,[2]; [4],14%
COc1cccc(C(=O)n2c(=O)oc3c4ncccc4c(Cl)cc32)c1 [Example 22],PCA % inh. PO,"[2]; PO, 100 mg/kg (number in parentheses)",43%
CC(C(=O)n1c(=O)oc2c3ncccc3c(Cl)cc21)c1ccccc1 (centres unmarked) [Example 23],RMC % inh.,[1],16%
same,PCA % inh. IP,"[2]; IP, 125 mg/kg (number in parentheses)",34%
CN(C)C(=O)n1c(=O)oc2c3ncccc3c(Cl)cc21 [Example 24],RMC % inh.,[1],18%
same,PCA % inh. PO,[2]; [3],0%
"Cn1c(=O)oc2c3ncccc3c(Cl)cc21 [Example 25, 5-Chloro-3-methyl-2-oxo-3H-oxazolo[4,5-h]quinoline]",RMC % inh.,[1],0%
same,PCA % inh. PO,[2]; [4],51%
